Data published in patent US20110207732A1, “AZAINDOLE DERIVATIVES” (MERCK PATENT GESELLSCHAFT MIT BESCHRANKTER HAFTUNG, priority 2008, published 2011).

Tests used:
Met kinase [1] = target: T1, Met kinase (Homo sapiens, UniProt P08581); assay: Met kinase inhibition, flashplate method (enzyme); format: biochemical; parameters: 6His (N); purchased Upstate 14-526; host or cells: Sf21 insect cells (S. frugiperda), baculovirus
Method: The test plates used are 96-well Flashplate® microtitre plates from Perkin Elmer (Cat. No SMP200). The components of the kinase reaction described below are pipetted into the assay plate. The Met kinase and the substrate poly Ala-Glu-Lys-Tyr, (pAGLT, 6:2:5:1), are incubated for 3 hrs at room temperature with radioactively labelled ^33P-ATP in the presence and absence of test substances in a total volume of […]. The reaction is terminated using 150 μl of a 60 mM EDTA solution. After incubation for a further 30 min at room temperature, the supernatants are filtered off with suction, and the wells are washed three times with 200 μl of 0.9% NaCl solution each time. The measurement of the bound radioactivity is carried out by means of a scintillation measuring instrument (Topcount NXT, Perkin-Elmer).
The full value used is the inhibitor-free kinase reaction. This should be approximately in the range 6000-9000 cpm. The pharmacological zero value used is staurosporin in a final concentration of 0.1 mM. The inhibitory values (IC50) are determined using the RS1_MTS program.
30 μl of assay buffer 10 μl of substance to be tested in assay buffer with 10% of DMSO 10 μl of ATP (final concentration 1 μM cold, 0.35 μCi of ^33P-ATP) 50 μl of Met kinase/substrate mixture in assay buffer; • (10 ng of enzyme/well, 50 ng of pAGLT/well)

Met kinase [2] = target: T1, Met kinase; assay: Met kinase inhibition (cell); format: cell-based

T1 sequence (P08581 25-1390): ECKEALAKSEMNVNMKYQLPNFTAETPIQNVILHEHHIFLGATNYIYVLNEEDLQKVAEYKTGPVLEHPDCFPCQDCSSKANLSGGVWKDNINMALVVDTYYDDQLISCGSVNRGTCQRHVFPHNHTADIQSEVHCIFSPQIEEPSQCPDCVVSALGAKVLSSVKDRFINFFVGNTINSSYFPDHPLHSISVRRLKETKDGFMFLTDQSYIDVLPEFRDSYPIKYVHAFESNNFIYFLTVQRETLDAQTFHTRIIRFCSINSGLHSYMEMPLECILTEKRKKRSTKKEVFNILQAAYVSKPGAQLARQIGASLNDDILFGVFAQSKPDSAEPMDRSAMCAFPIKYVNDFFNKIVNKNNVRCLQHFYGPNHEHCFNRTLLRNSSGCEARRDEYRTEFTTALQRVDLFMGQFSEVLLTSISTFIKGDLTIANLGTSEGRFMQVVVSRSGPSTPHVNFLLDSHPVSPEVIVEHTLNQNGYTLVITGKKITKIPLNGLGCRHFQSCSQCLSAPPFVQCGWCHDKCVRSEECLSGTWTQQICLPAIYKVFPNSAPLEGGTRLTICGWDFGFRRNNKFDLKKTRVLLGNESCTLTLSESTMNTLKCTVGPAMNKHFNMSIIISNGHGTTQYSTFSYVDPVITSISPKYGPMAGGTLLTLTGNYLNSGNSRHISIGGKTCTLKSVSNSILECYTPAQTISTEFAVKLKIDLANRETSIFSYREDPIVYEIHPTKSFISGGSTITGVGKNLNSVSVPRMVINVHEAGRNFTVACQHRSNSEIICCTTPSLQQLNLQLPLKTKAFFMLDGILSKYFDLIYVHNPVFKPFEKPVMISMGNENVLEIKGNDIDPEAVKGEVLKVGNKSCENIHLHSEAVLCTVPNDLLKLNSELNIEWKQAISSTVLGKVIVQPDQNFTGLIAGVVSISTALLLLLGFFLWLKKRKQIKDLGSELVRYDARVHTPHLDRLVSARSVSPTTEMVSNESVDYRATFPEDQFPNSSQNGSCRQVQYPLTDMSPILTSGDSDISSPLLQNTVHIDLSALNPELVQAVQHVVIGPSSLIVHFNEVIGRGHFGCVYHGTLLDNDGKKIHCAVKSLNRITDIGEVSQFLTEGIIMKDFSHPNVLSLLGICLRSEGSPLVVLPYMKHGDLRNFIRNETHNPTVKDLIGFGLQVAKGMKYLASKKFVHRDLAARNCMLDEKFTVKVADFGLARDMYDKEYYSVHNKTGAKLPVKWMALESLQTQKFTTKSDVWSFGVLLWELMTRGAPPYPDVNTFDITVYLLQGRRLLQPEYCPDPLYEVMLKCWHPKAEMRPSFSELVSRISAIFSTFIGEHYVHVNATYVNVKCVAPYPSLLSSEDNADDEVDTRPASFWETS

SMILES: N#Cc1ccc2[nH]c(-c3ccncc3)c(-c3ccc(F)cc3)c2n1
- melting point: 230 °C

SMILES: N#Cc1ccc2[nH]c(-c3cncnc3)c(-c3ccc(F)cc3)c2n1 [Compound A14, 3-(4-fluorophenyl)-2-(pyrimidin-5-yl)-1H-pyrrolo[3,2-b]pyridine-5-carbonitrile]
- melting point: 230 to 232 °C

SMILES: N#Cc1ccc2[nH]c(-c3ccc(F)cc3)c(-c3ccncc3)c2n1 [Compound A20]
- IC50 (Met kinase [1]): > 10 µM

SMILES: N#Cc1ccc2[nH]c(-c3ccncc3)c(-c3cccc(F)c3)c2n1 [Compound A58]
- IC50 (Met kinase [2]): > 10 µM
- IC50 (Met kinase [1]): 0.1 to 10 µM

SMILES: O=C(O)c1ccc2[nH]c(-c3ccncc3)c(-c3cccc(Cl)c3)c2n1 [Compound A59]
- IC50 (Met kinase [2]): > 10 µM
- IC50 (Met kinase [1]): 0.1 to 10 µM

SMILES: NC(=O)c1ccc2[nH]c(-c3ccncc3)c(-c3cccc(Cl)c3)c2n1 [Compound A60]
- IC50 (Met kinase [2]): > 10 µM
- IC50 (Met kinase [1]): 0.1 to 10 µM

SMILES: O=C(NCCN1CCOCC1)c1ccc2[nH]c(-c3ccncc3)c(-c3cccc(Cl)c3)c2n1 [Compound A61]
- IC50 (Met kinase [2]): > 10 µM
- IC50 (Met kinase [1]): > 10 µM

SMILES: N#Cc1ccc2[nH]c(-c3cncnc3)c(-c3cccc(Cl)c3)c2n1 [Compound A62, 3-(3-Chlorophenyl)-2-pyrimidin-5-yl-1H-pyrrolo[3,2-b]pyridine-5-carbonitrile]
- IC50 (Met kinase [1]): > 10 µM
